Our source for the melting point values is patent US20100130737A1, “Regulating Agent of GPR34 Receptor Function” (TAKEDA PHARMACEUTICAL COMPANY LIMITED, priority 2005, published 2010).

For the compound `CC(C(=O)NC1(C(=O)O)Cc2ccc(-c3ccc(Cl)cc3)cc2C1)c1ccccc1` (centres unmarked) [Example B139, 5-(4-Chlorophenyl)-2-[(2-phenylpropanoyl)amino]indan-2-carboxylic acid], the melting point (as a rule, the temperature of the solid-liquid transition) was 200 to 201 °C.

For `O=C(Cc1ccc(NC(=O)c2ccc(F)cc2)cc1)NC1(C(=O)O)Cc2ccc(-c3ccc(Cl)cc3)cc2C1` (centres unmarked) [Example B140, 5-(4-Chlorophenyl)-2-[({4-[(4-fluorobenzoyl)amino]phenyl}acetyl)amino]indan-2-carboxylic acid], the melting point was 252 to 254 °C. To `O=C(Cc1ccc(OCc2ccccc2F)cc1)NC1(C(=O)O)Cc2ccc(-c3ccc(Cl)cc3)cc2C1` (centres unmarked) [Example B141, 5-(4-Chlorophenyl)-2-[({4-[(2-fluorobenzyl)oxy]phenyl}acetyl)amino]indan-2-carboxylic acid] belongs 232 to 233 °C; to `O=C(Cc1ccc(OCc2cccc(F)c2)cc1)NC1(C(=O)O)Cc2ccc(-c3ccc(Cl)cc3)cc2C1` (centres unmarked) [Example B142], 209 °C; to `O=C(Cc1ccc(OCc2ccc(Cl)cc2)cc1)NC1(C(=O)O)Cc2ccc(-c3ccc(Cl)cc3)cc2C1` (centres unmarked) [Example B143, 2-[({4-[(4-Chlorobenzyl)oxy]phenyl}acetyl)amino]-5-(4-chlorophenyl)indan-2-carboxylic acid], 230 to 232 °C. As to `O=C(Cc1ccc(OCc2ccc(F)cc2Cl)cc1)NC1(C(=O)O)Cc2ccc(-c3ccc(Cl)cc3)cc2C1` (centres unmarked) [Example B144, 2-[({4-[(2-Chloro-4-fluorobenzyl)oxy]phenyl}acetyl)amino]-5-(4-chlorophenyl)indan-2-carboxylic acid], the melting point is 200 to 201 °C. Under `O=C(Cc1ccc(OCc2ccc(C(F)(F)F)cc2)cc1)NC1(C(=O)O)Cc2ccc(-c3ccc(Cl)cc3)cc2C1` (centres unmarked) [Example B145, 5-(4-Chlorophenyl)-2-{[(4-{[4-(trifluoromethyl)benzyl]oxy}phenyl)acetyl]amino)indan-2-carboxylic acid] stands 237 to 238 °C; under `O=C(Cc1ccc(OCc2ccoc2)cc1)NC1(C(=O)O)Cc2ccc(-c3ccc(Cl)cc3)cc2C1` (centres unmarked) [Example B146, 5-(4-Chlorophenyl)-2-({[4-(3-furylmethoxy)phenyl]acetyl}amino)indan-2-carboxylic acid], 200 to 202 °C. To `O=C(Cc1ccc(OCc2ccsc2)cc1)NC1(C(=O)O)Cc2ccc(-c3ccc(Cl)cc3)cc2C1` (centres unmarked) [Example B147, 5-(4-Chlorophenyl)-2-({[4-(3-thienylmethoxy)phenyl]acetyl}amino)indan-2-carboxylic acid] belongs 224 to 226 °C; to `O=C(O)CNC(=O)C1(NC(=O)Cc2ccc(OCc3ccccc3)cc2)Cc2ccc(-c3ccc(Cl)cc3)cc2C1` (centres unmarked) [Example B148, N-{[2-({[4-(Benzyloxy)phenyl]acetyl)amino)-5-(4-chlorophenyl)-2,3-dihydro-1H-inden-2-yl]carbonyl}glycine], 217 to 218 °C; to `O=C(O)CNC(=O)C1(NC(=O)Cc2ccc(OCc3ccc(F)cc3)cc2)Cc2ccc(-c3ccc(Cl)cc3)cc2C1` (centres unmarked) [Example B149, N-({5-(4-Chlorophenyl)-2-[({4-[(4-fluorobenzyl)oxy]phenyl}acetyl)amino]-2,3-dihydro-1H-inden-2-yl}carbonyl)glycine], 209 to 210 °C. Turning to `O=C(O)CCNC(=O)C1(NC(=O)Cc2ccc(OCc3ccc(F)cc3)cc2)Cc2ccc(-c3ccc(Cl)cc3)cc2C1` (centres unmarked) [Example B150, N-({5-(4-Chlorophenyl)-2-[({4-[(4-fluorobenzyl)oxy]phenyl}acetyl)amino]-2,3-dihydro-1H-inden-2-yl)carbonyl)-O-alanine], the melting point worked out at 214 °C.

For `O=C(Cc1ccc(OCc2cccs2)cc1)NC1(C(=O)O)Cc2ccc(-c3ccc(Cl)cc3)cc2C1` (centres unmarked) [Example B151, 5-(4-Chlorophenyl)-2-({[4-(2-thienylmethoxy)phenyl]acetyl}amino)indan-2-carboxylic acid], the melting point is 201 °C. For `Cc1nc(COc2ccc(CC(=O)NC3(C(=O)O)Cc4ccc(-c5ccc(Cl)cc5)cc4C3)cc2)cs1` (centres unmarked) [Example B152], the melting point was in the range of 209 to 210 °C. To `O=C(Cc1ccc(OCc2c(Cl)cccc2Cl)cc1)NC1(C(=O)O)Cc2ccc(-c3ccc(Cl)cc3)cc2C1` (centres unmarked) [Example B153] belongs 204 to 205 °C. To `O=C(Cc1ccc(OC2CCc3ccccc32)cc1)NC1(C(=O)O)Cc2ccc(-c3ccc(Cl)cc3)cc2C1` (centres unmarked) [Example B154, 5-(4-Chlorophenyl)-2-({[4-(2,3-dihydro-1H-inden-1-yloxy)phenyl]acetyl)amino)indan-2-carboxylic acid] belongs 194 to 195 °C; to `O=C(Cc1ccc(OC2Cc3ccccc3C2)cc1)NC1(C(=O)O)Cc2ccc(-c3ccc(Cl)cc3)cc2C1` (centres unmarked) [Example B155, 5-(4-Chlorophenyl)-2-({[4-(2,3-dihydro-1H-inden-2-yloxy)phenyl]acetyl}amino)indan-2-carboxylic acid], 233 to 234 °C. Regarding `Cc1nc(COc2ccc(CC(=O)NC3(C(=O)O)Cc4ccc(-c5ccc(Cl)cc5)cc4C3)cc2)co1` (centres unmarked) [Example B156, 5-(4-Chlorophenyl)-2-[({4-[(2-methyl-1,3-oxazol-4-yl)methoxy]phenyl}acetyl)amino]indan-2-carboxylic acid], the melting point lay in the range of 187 to 189 °C. Under `Cc1nc2ccccc2n1Cc1ccc(C(=O)NC2(C(=O)O)Cc3ccc(-c4ccc(Cl)cc4)cc3C2)cc1` (centres unmarked) [Example B157, 5-(4-Chlorophenyl)-2-({4-[(2-methyl-1H-benzimidazol-1-yl)methyl]benzoyl}amino)indan-2-carboxylic acid] stands 258 to 259 °C; under `O=C(Cc1ccc(Oc2nc3ccccc3s2)cc1)NC1(C(=O)O)Cc2ccc(-c3ccc(Cl)cc3)cc2C1` (centres unmarked) [Example B158, 2-({[4-(1,3-Benzothiazol-2-yloxy)phenyl]acetyl}amino)-5-(4-chlorophenyl)indan-2-carboxylic acid], 241 to 243 °C. Under `Cc1cccc(C)c1-c1ccc2c(c1)CC(NC(=O)Cc1ccc(OCc3ccc(F)cc3)cc1)(C(=O)O)C2` (centres unmarked) [Example B160, 5-(2,6-Dimethylphenyl)-2-[({4-[(4-fluorobenzyl)oxy]phenyl}acetyl)amino]indan-2-carboxylic acid] stands 210 to 212 °C; under `O=C(Cc1ccc(Oc2ccc(F)cc2)cc1)NC1(C(=O)O)Cc2ccc(-c3ccc(Cl)cc3)cc2C1` (centres unmarked) [Example B161, 5-(4-Chlorophenyl)-2-({[4-(4-fluorophenoxy)phenyl]acetyl}amino)indan-2-carboxylic acid], 232 to 234 °C. Under `O=C(Cc1ccc(NCc2ccc(F)cc2)cc1)NC1(C(=O)O)Cc2ccc(-c3ccc(Cl)cc3)cc2C1` (centres unmarked) [Example B162, 5-(4-Chlorophenyl)-2-[({4-[(4-fluorobenzyl)amino]phenyl}acetyl)amino]indan-2-carboxylic acid] stands 188 to 190 °C; under `O=C(Cc1ccc(OCc2ccncc2)cc1)NC1(C(=O)O)Cc2ccc(-c3ccc(Cl)cc3)cc2C1` (centres unmarked) [Example B163, 5-(4-Chlorophenyl)-2-({[4-(pyridin-4-ylmethoxy)phenyl]acetyl}amino)indan-2-carboxylic acid], 128 °C. `O=C(Cc1ccc(Oc2ccsc2)cc1)NC1(C(=O)O)Cc2ccc(-c3ccc(Cl)cc3)cc2C1` (centres unmarked) [Example B164, 5-(4-Chlorophenyl)-2-({[4-(3-thienyloxy)phenyl]acetyl}amino)indan-2-carboxylic acid] showed a melting point of 226 to 228 °C. Under `Cc1noc(C)c1COc1ccc(CC(=O)NC2(C(=O)O)Cc3ccc(-c4ccc(Cl)cc4)cc3C2)cc1` (centres unmarked) [Example B165] stands 200 to 201 °C; under `O=C(CC1CCN(C(=O)c2ccc(F)cc2)CC1)NC1(C(=O)O)Cc2ccc(-c3ccc(Cl)cc3)cc2C1` (centres unmarked) [Example B166, 5-(4-Chlorophenyl)-2-({[1-(4-fluorobenzoyl)piperidin-4-yl]acetyl}amino)indan-2-carboxylic acid], 242 °C. To `O=C(CC1CCN(C(=O)Cc2ccc(F)cc2)CC1)NC1(C(=O)O)Cc2ccc(-c3ccc(Cl)cc3)cc2C1` (centres unmarked) [Example B167, 5-(4-Chlorophenyl)-2-[({1-[(4-fluorophenyl)acetyl]piperidin-4-yl}acetyl)amino]indan-2-carboxylic acid] belongs 196 °C.

Turning to `O=C(CCCSc1nc2ccccc2s1)NC1(C(=O)O)Cc2ccc(-c3ccc(Cl)cc3)cc2C1` (centres unmarked) [Example B168, 2-{[4-(1,3-Benzothiazol-2-ylthio)-butanoyl]amino}-5-(4-chlorophenyl)indan-2-carboxylic acid], the melting point is 210 to 212 °C. Under `O=C(CSc1nc2ccccc2o1)NC1(C(=O)O)Cc2ccc(-c3ccc(Cl)cc3)cc2C1` (centres unmarked) [Example B169, 2-{[(1,3-Benzoxazol-2-ylthio)acetyl]amino}-5-(4-chlorophenyl)indan-2-carboxylic acid] stands 227 to 230 °C.

`O=C(CCCSc1ccc2ccccc2c1)NC1(C(=O)O)Cc2ccc(-c3ccc(Cl)cc3)cc2C1` (centres unmarked) [Example B170, 5-(4-Chlorophenyl)-2-{[4-(2-naphthylthio)butanoyl]amino}indan-2-carboxylic acid] yielded a melting point of 210 to 212 °C.

Regarding `O=C(CSc1ccc2ccccc2c1)NC1(C(=O)O)Cc2ccc(-c3ccc(Cl)cc3)cc2C1` (centres unmarked) [Example B171, 5-(4-Chlorophenyl)-2-{[(2-naphthylthio)acetyl]amino)indan-2-carboxylic acid], the melting point lay in the range of 223 to 225 °C.

For `O=C(CCSc1ccc2ccccc2c1)NC1(C(=O)O)Cc2ccc(-c3ccc(Cl)cc3)cc2C1` (centres unmarked) [Example B172, 5-(4-Chlorophenyl)-2-{[3-(2-naphthylthio)propanoyl]amino}indan-2-carboxylic acid], the melting point stood at 215 °C. To `COc1ccc(CC(=O)NC2(C(=O)O)Cc3ccc(-c4ccc(Cl)cc4)cc3C2)cc1` (centres unmarked) [Example B173, 5-(4-Chlorophenyl)-2-{[(4-methoxyphenyl)acetyl]amino)indan-2-carboxylic acid] belongs 231 to 233 °C; to `O=C(Cc1c[nH]c2ccccc12)NC1(C(=O)O)Cc2ccc(-c3ccc(Cl)cc3)cc2C1` (centres unmarked) [Example B176], 209 to 211 °C.
